Laboratory results from patent US5922719A, “Coumarin dopamine D4 receptor antagonists” (priority 1997, dated 1999).
Where a name gives a salt, the structure may show the parent alone. Read-outs that look alike come from different tables or passages of the source.

Columns and labels:
[1] = biological target: human dopamine D2 (Long form) receptor (Homo sapiens, UniProt P14416); assay: [3H]spiperone receptor binding assay, D2 (Long form) (CHO K1 membranes); conditions: [3H]spiperone 0.2 nM, human D2 (Long form), CHO K1 membranes, 60 minutes at 25° C.; read-out: D2 Ki
human dopamine D2 (Long form) receptor, sequence (P14416 whole entry): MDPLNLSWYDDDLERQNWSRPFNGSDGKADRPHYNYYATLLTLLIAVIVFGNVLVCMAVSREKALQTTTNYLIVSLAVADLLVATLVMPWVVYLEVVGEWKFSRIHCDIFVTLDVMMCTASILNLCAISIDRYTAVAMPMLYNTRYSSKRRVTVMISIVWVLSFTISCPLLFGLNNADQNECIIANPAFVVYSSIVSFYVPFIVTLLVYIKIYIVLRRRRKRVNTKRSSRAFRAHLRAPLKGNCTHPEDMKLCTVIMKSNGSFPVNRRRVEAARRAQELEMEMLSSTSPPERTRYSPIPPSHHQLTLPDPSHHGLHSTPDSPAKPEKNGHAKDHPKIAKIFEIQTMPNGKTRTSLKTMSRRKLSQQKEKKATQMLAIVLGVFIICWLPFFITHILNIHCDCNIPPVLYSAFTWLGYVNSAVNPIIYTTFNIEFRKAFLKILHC
Source text: (§1) A cell line expressing human dopamine D2 (Long form) receptors was purchased from Oregon Health Sciences University, Portland, Ore. The D2 receptor cDNA was subcloned into an expression vector, pRc/CMV. The plasmids were transfected by electroporation into CHO K1 cells. A single stable transfectant, resistant to the antibiotic G418, was isolated and selected for use in the binding studies. For D4 binding, CHO K1 cells stably transfected to express the human recombinant dopamine D4.2 receptor subtype, as described by Shih, et al., "The expression and functional characterization of human dopamine D4.2 receptor in CHO K1 cells," Soc. Neurosci., 1995;21(Part 1):621.
(§2) CHO K1 cells expressing either human D2 and D4.2 receptors were grown in 162 cm^2 culture flasks in F12 medium (Gibco Laboratories, Grand Island, N.Y.) supplemented with 10% fetal bovine serum (FBS, Hyclone, Logan, UT) in an atmosphere of 5% Co2 /95% air at 37° C. Cells were grown until confluent, after which growth medium was removed and replaced with 0.02% ethylene diamine tetracetate (EDTA) in a phosphate-buffered saline solution (Sigma Chemical Co; St. Louis, Mo.) and scraped from the flasks. The cells were centrifuged at about 1000×g for 10 minutes at […] and then resuspended in TEM buffer (25 mM Tris-HCL, pH 7.4, 5 mM EDTA, and 6 mM MgCl2) for D2 or the D4.2 buffer (50 mM Tris-HCl, pH 7.4, 5 mM EDTA, 1.5 mM CaCl2, 5 mM KCl, and 120 mM NaCl) and homogenized. The membranes were pelleted by centrifugation at 20,000×g at […] for 20 minutes. Then the pellets were resuspended in an appropriate buffer at 1 mL/flask and stored at -70° C. until used in the receptor binding assay.
After 60 minutes incubation at 25° C., the incubations were terminated by rapid filtration through Whatmann GF/B glass fibre filters (soaked for 1 hour in 0.5% polyethylenimine) on a -cell harvester, with three washes of 1 mL ice-cold buffer. Individual filter disks containing the bound ligand were placed in counting vials with 4 mL of scintillation fluid (Ready Gel, Beckman Instrument Inc, Fullerton, Calif.) and then counted in a Beckman LS-6800 liquid scintillation counter at an efficiency of 45%. Nonspecific binding was defined in presence of 1 mM of haloperidol.
(§3) Saturation and competition binding data were analyzed using an iterative nonlinear least-square curve-fitting Ligand program. […] Experimental compounds were made up as stock solutions in dimethyl sulfoxide (DMSO). […] Each observation was carried out in triplicate. To allow these calculations, Kd values were measured for the interaction of various ligands with the receptor. […]

[2] = biological target: T1, human recombinant dopamine D4.2 receptor (Homo sapiens, UniProt P21917, DEL265-296); assay: [3H]spiperone receptor binding assay, D4.2 (CHO K1 membranes); conditions: [3H]spiperone 0.2 nM, human D4.2, CHO K1 membranes, 60 minutes at 25° C.
T1 construct: expressed in transfected cells
T1 sequence (P21917 with tags, fused parts or gaps DEL265-296): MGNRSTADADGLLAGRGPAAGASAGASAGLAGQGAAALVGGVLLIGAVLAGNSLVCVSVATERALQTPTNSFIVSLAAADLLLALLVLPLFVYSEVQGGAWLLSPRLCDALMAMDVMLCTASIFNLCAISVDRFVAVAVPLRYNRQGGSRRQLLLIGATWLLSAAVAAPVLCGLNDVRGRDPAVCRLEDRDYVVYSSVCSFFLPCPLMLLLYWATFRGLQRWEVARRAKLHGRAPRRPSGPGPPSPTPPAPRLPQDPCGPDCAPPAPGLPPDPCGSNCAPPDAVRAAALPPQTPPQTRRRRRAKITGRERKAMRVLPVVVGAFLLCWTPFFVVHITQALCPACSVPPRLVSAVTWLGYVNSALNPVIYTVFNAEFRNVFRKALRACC
Source text: as §1, with “Soc.” for “Soc. Neurosci., 1995;21(Part 1):621.”
as §2, with “Cells” for “CHO K1 cells expressing either human D2 and D4.2 receptors were grown in 162 cm^2 culture flasks in F12 medium (Gibco Laboratories, Grand Island, N.Y.) supplemented with 10% fetal bovine serum (FBS, Hyclone, Logan, UT) in an atmosphere of 5% Co2 /95% air at 37° C. Cells”
After 60 minutes incubation at 25° C., the incubations were terminated by rapid filtration through Whatmann GF/B glass fibre filters (soaked for 1 hour in 0.5% polyethylenimine) on a -cell harvester, with three washes of 1 mL ice-cold buffer. […] Nonspecific binding was defined in presence of 1 mM of haloperidol.
as §3

Row | SMILES | Ki [1] [nM] | Ki ([2]; D4 Ki) [nM] | Ki ([2]; read-out: D4 Ki) [nM]
1 | Cc1cccc(N2CCN(Cc3ccc4ccc(=O)oc4c3)CC2)c1 [Example 17, 7-(4-m-Tolyl-piperazin-1-ylmethyl)-chromen-2-one] | 4400 | 32 | –
2 | O=c1ccc2ccc(CN3CCN(c4ccccc4F)CC3)cc2o1 [Example 18, 7-[4-(2-Fluoro-phenyl)-piperazin-1-ylmethyl]-chromen-2-one] | 1000 | – | 33
3 | Cc1cccc(N2CCN(Cc3ccc4ccc(=O)oc4c3)CC2)c1Cl [Example 20, 7-[4-(2-Chloro-3-methyl-phenyl)-piperazin-1-ylmethyl]-chromen-2-one] | 5880 | – | 40
4 | O=c1ccc2ccc(CN3CCN(c4cccc(Cl)c4Cl)CC3)cc2o1 [Example 21, 7-[4-(2,3-Dichloro-phenyl)-piperazin-1-ylmethyl]-chromen-2-one] | 1840 | – | 41.1
5 | O=c1ccc2ccc(CN3CCN(c4cccc(F)c4)CC3)cc2o1 [Example 22, 7-[4-(3-Fluoro-phenyl)-piperazin-1-ylmethyl]-chromen-2-one] | 4020 | – | 44
6 | O=c1ccc2ccc(CN3CCN(c4ccccn4)CC3)cc2o1 [Example 25, 2H-1-Benzopyran-2-one, 7-[[4-(2-pyridinyl)-1-piperazinyl]methyl]-, dihydrochloride] | > 5880 | – | 68.2
7 | Cc1cccc(N2CCN(Cc3ccc4oc(=O)ccc4c3)CC2)c1C [Example 35, 6-[4-(2,3-Dimethyl-phenyl)-piperazin-1-ylmethyl]-chromen-2-one] | 3250 | – | 8.8
8 | Cc1ccc(N2CCN(Cc3ccc4oc(=O)ccc4c3)CC2)cc1 [Example 36, 6-(4-p-Tolyl-piperazin-1-ylmethyl)-chromen-2-one] | 5830 | 10.9 | –
9 | O=c1ccc2cc(CN3CCN(c4ccc(CO)c(Br)c4)CC3)ccc2o1 [Example 37, 6-[4-(3-Bromo-4-hydroxymethyl-phenyl)-piperazin-1-ylmethyl]-chromen-2-one] | 2980 | – | 12.6
10 | O=c1ccc2cc(CN3CCN(c4ccc(CO)c(Cl)c4)CC3)ccc2o1 [Example 38, 6-[4-(3-Chloro-4-hydroxymethyl-phenyl)-piperazin-1-ylmethyl]-chromen-2-one] | 7290 | – | 13
11 | O=c1ccc2cc(CN3CCN(c4cccc(Cl)c4Cl)CC3)ccc2o1 [Example 39, 6-[4-(2,3-Dichloro-phenyl)-piperazin-1-ylmethyl]-chromen-2-one] | 1200 | – | 15
12 | O=c1ccc2cc(CN3CCN(c4ccc(CO)c(F)c4)CC3)ccc2o1 [Example 40, 6-[4-(3-Fluoro-4-hydroxymethyl-phenyl)-piperazin-1-ylmethyl]-chromen-2-one] | > 5880 | – | 18
13 | O=c1ccc2cc(CN3CCN(c4cccc(Cl)c4)CC3)ccc2o1 [Example 41, 6-[4-(3-Chloro-phenyl)-piperazin-1-ylmethyl]-chromen-2-one] | 3320 | – | 19.4
14 | O=c1ccc2cc(CN3CCN(c4ccccc4Cl)CC3)ccc2o1 [Example 43, 6-[4-(2-Chloro-phenyl)-piperazin-1-ylmethyl]-chromen-2-one] | 218 | – | 28
15 | O=c1ccc2cc(CN3CCN(c4ccccn4)CC3)ccc2o1 [Example 44, 2H-1-Benzopyran-2-one, 6-[[4-(2-pyridinyl)-1-piperazinyl]methyl]-, dihydrochloride] | 2170 | – | 29.7
16 | COc1cccc(N2CCN(Cc3ccc4oc(=O)ccc4c3)CC2)c1 [Example 47, 6-[4-(3-Methoxy-phenyl)-piperazin-1-ylmethyl]-chromen-2-one] | 7120 | – | 57
